The source of these data is patent US9464071B2 (priority 2010, dated 2016).

“And” between values parts separate entries of the source, which are not always exact repeats. Identical values can stand only once. Counter-ions that a name gives are not always drawn.

For orientation: melting point means the temperature of the solid-liquid transition.

For the compound `CNc1cccc(CN(c2cc(OC)cc(OC)c2)c2ccc3ncc(-c4cnn(C)c4)nc3c2)n1`, the melting point is 181 °C and 180 °C. Regarding `COCC(O)CN(c1cc(OC)cc(OC)c1)c1ccc2ncc(-c3cnn(C(C)C)c3)nc2c1` (single isomer, unassigned) (as salt: HCl), the melting point came to 95 °C. In the case of `COc1cc(OC)cc(N(CCF)c2ccc3ncc(-c4cnn(C)c4)nc3c2)c1` it was 143 °C.

As to `COc1cc(OC)cc(N(Cc2ccc(Cl)s2)c2ccc3ncc(-c4cnn(C)c4)nc3c2)c1`, the melting point is 140.28 °C.

As for `COc1cc(OC)cc(N(CCCN2CCC(F)(F)C2)c2ccc3ncc(-c4cnn(CC5CCOCC5)c4)nc3c2)c1` [Compound 459], the melting point was 99.32 °C. For `COc1cc(OC)cc(N(CC2CN(Cc3ccccc3)CCO2)c2ccc3ncc(-c4cnn(C)c4)nc3c2)c1` (stereo not shown), the melting point is 134 °C. The figure for `CN(C)c1cccc(N(CC2CC2)c2ccc3ncc(-c4cnn(C)c4)nc3c2)c1` [Compound 883] is 194 °C; for `COc1cc(OC)cc(N(CCNCC(F)F)c2ccc3ncc(-c4cnn(C)c4)nc3c2)c1` [Compound 513] it is 160.65 °C. In the case of `COc1cc(OC)cc(N(CCN2C(=O)c3ccccc3C2=O)c2ccc3ncc(-c4cnn(C)c4)nc3c2)c1` it was 215.88 °C. In the case of `C#CCN(c1cc(OC)cc(OC)c1)c1ccc2ncc(-c3cnn(CC4CCOCC4)c3)nc2c1` it was 106 °C.

`COc1cc(OC(C)C)cc(N(CC2CC2)c2ccc3ncc(-c4cnn(C)c4)nc3c2)c1` [Compound 269] returned a melting point of 155.79 °C. `COc1cc(OC)cc(N(CC#Cc2cc(C(N)=O)ccn2)c2ccc3ncc(-c4cnn(C)c4)nc3c2)c1` had a melting point of 204 °C. The figure for `COc1cc(OC)cc(N(CCO)c2ccc3ncc(-c4cnn(CCCN)c4)nc3c2)c1` [Compound 238] is 133.66 °C. In the case of `COc1cc(OC)cc(N(Cc2ccc(Cl)s2)c2ccc3ncc(-c4cnn(CCO)c4)nc3c2)c1` [Compound 340] it was 184.2 °C; in that of `COc1cc(OC)cc(N(CC2CC2)c2ccc3ncc(-c4cnn(S(=O)(=O)N(C)C)c4)nc3c2)c1` [Compound 58], 163 °C and 165 °C; in that of `COc1cc(OC)cc(N(c2ccc3ncc(-c4cnn(C)c4)nc3c2)C2COC2)c1`, 160.14 °C and 164 °C. The figure for `COc1cc(OC)cc(N(CC2CCN(CC(F)(F)F)CC2)c2ccc3ncc(-c4cnn(C)c4)nc3c2)c1` is 123 °C and 123.5 °C; for `COc1cc(OC)cc(N(c2ccc3ncc(-c4cnn(C)c4)nc3c2)C(C)(C)C#Cc2nccc(OC)n2)c1` [Compound 806] it is 182 °C. `COc1cc(OC)cc(N(CC#Cc2cc(Cl)nc(N)n2)c2ccc3ncc(-c4cnn(C)c4)nc3c2)c1` returned a melting point of 220 °C. The compound `CNC(=O)OCCN(c1cc(OC)cc(OC)c1)c1ccc2ncc(-c3cnn(C)c3)nc2c1` came in with a melting point of 160 to 162 °C. In the case of `COc1cc(OC)cc(N(Cc2cccnc2)c2ccc3ncc(-c4cnn(C)c4)nc3c2)c1` [Compound 568] it was 164.5 °C; in that of `[2H]C([2H])([2H])Oc1cc(OC([2H])([2H])[2H])cc(N(c2ccc3ncc(-c4cnn(C)c4)nc3c2)C([2H])([2H])C([2H])([2H])O)c1`, 149 °C; in that of `COc1cc(OC)cc(N(CC(O)CN2CCC(F)(F)C2)c2ccc3ncc(-c4cnn(C)c4)nc3c2)c1` (stereo not shown) [Compound 374], 206.48 °C. The compound `COc1cc(OC)cc(N(CCCN)c2ccc3ncc(-c4cn[nH]c4)nc3c2)c1` [Compound 338] came in with a melting point of 198.91 °C. With `[2H]C([2H])([2H])Oc1cc(OC([2H])([2H])[2H])cc(N(CC#Cc2ccncc2)c2ccc3ncc(-c4cnn(C(C)C)c4)nc3c2)c1`, the melting point turned out to be 146 °C. The figure for `COc1cc(OC)cc(N(CCN2CCN(CCO)CC2)c2ccc3ncc(-c4cnn(C)c4)nc3c2)c1` [Compound 528] is 110.16 °C; for `COc1cc(OC)cc(N(CCO)c2ccc3ncc(-c4cnn(C)c4)nc3c2)c1` it is 152.97 °C and 153 °C. With `COc1cc(OC)cc(N(CCCc2cc(C)ccn2)c2ccc3ncc(-c4cnn(C)c4)nc3c2)c1` [Compound 635], the melting point was 110 °C and 111 °C. The figure for `Cn1cc(-c2ccc3ncc(N(CC4CC4)c4cccc(OC(F)F)c4)nc3c2)cn1` [Compound 209] is 166.2 °C; for `CCOC(=O)C1CCN(CCN(c2cc(OC)cc(OC)c2)c2ccc3ncc(-c4cnn(C)c4)nc3c2)CC1` [Compound 343] it is 80 °C; for `COc1cc(F)cc(N(CCCO)c2ccc3ncc(-c4cnn(C)c4)nc3c2)c1` [Compound 565] it is 152 °C. In the case of `COc1cc(OC)cc(N(CC2CCN(C(C)C)CC2)c2ccc3ncc(-c4cnn(C)c4)nc3c2)c1` it was 168 °C and 168.08 °C; in that of `COc1cc(OC)cc(N(Cc2nccn2C)c2ccc3ncc(-c4cnn(C)c4)nc3c2)c1` [Compound 101], 186 °C; in that of `COc1cc(OC)cc(N(CCNC(C)C)c2ccc3ncc(-c4cnn(CCS(C)(=O)=O)c4)nc3c2)c1`, 148 °C. The figure for `COc1cc(OC)cc(N(Cc2ccncc2)c2ccc3ncc(-c4cnn(C)c4)nc3c2)c1` [Compound 569] is 139 °C; for `c1ccc(N(CC2CC2)c2ccc3ncc(-c4cn[nH]c4)nc3c2)cc1` [Compound 54] it is 138 °C; for `COc1cc(OC)cc(N(CCCc2nccc(O)n2)c2ccc3ncc(-c4cnn(C)c4)nc3c2)c1` [Compound 663] it is 200 °C. With `COc1cc(OC)cc(N(CC#CCO)c2ccc3ncc(-c4cnn(C)c4)nc3c2)c1`, the melting point was 157 °C and 156 °C. On to `COc1ccc(OC)c(N(CCO)c2ccc3ncc(-c4cnn(C)c4)nc3c2)c1`, for which the melting point stood at 191.73 °C. `CNC(=O)Cn1cc(-c2cnc3ccc(N(CC4CC4)c4cc(OC)cc(OC)c4)cc3n2)cn1` displayed a melting point of 170.82 °C. `C#CCN(c1cc(OC)cc(OC)c1)c1ccc2ncc(-c3cnn(C)c3)nc2c1` [Compound 38] registered a melting point of 168 °C. As for `COc1cc(OC)cc(N(c2ccc3ncc(-c4cnn(C)c4)nc3c2)[C@H]2CC[C@@H](NC(C)C)CC2)c1`, the melting point amounted to 83 °C. In the case of `COc1cc(OCCO)cc(N(CC2CC2)c2ccc3ncc(-c4cnn(CCS(C)(=O)=O)c4)nc3c2)c1` it was 80 °C. In the case of `COc1cc(OCCO)cc(N(CCN)c2ccc3ncc(-c4cnn(C)c4)nc3c2)c1` it was 165 °C; in that of `COc1ccnc(C#CCN(c2ccc3ncc(-c4cnn(C)c4)nc3c2)c2c(F)c(OC)cc(OC)c2F)n1`, 187 °C. Take `COc1cc(OC)cc(N(CC2CNCCO2)c2ccc3ncc(-c4cnn(C)c4)nc3c2)c1` (stereo not shown): the melting point is 149 °C. In the case of `COc1cc(OC)cc(N(CC(O)CN)c2ccc3ncc(-c4cnn(C)c4)nc3c2)c1` (stereo not shown) [Compound 125], the melting point was 99 °C and 99.31 °C. The figure for `CCOc1cc(F)cc(N(CCO)c2ccc3ncc(-c4cnn(C)c4)nc3c2)c1` [Compound 401] is 138 °C; for `COc1cc(F)cc(N(CCNC(C)C)c2ccc3ncc(-c4cn[nH]c4)nc3c2)c1` it is 194 °C.
